The source of these data is the NIST ThermoML archive (doi:10.1016/j.fluid.2015.05.003).

The conditions of the data set: 298.15 K; 101.33 kPa; Liquid.

Numbers after ± are expanded uncertainties.

For the compound `CCCCCC[n+]1ccc2ccccc2c1.N#C[S-]` [2-hexylisoquinolinium thiocyanate], the mass density turned out to be 1081.34 ± 1.2 kg/m3.

As for `CCCCCCCC[n+]1ccc2ccccc2c1.N#C[S-]` [2-octylisoquinolinium thiocyanate], the mass density is 1061.69 ± 1.2 kg/m3.
